According to patent publication US10703765B2 (priority 2014, dated 2020):
Structures can show the parent of a compound that is named as a salt. Where two headings read alike, the source gives them in different places.

Biological target: human σ1 receptor (Homo sapiens, UniProt Q99720)
Test: biochemical
Format: binding
Parameters: μ and σ1 dual binding: key to the marks not given beside the values
[1] = read-out: μ and σ1 dual binding
[2] = combined class from Ki-σ1 (human σ1 receptor, A1) and Ki-μ (human μ-opioid receptor, A2) radioligand binding

Chain of human σ1 receptor (Q99720 whole entry): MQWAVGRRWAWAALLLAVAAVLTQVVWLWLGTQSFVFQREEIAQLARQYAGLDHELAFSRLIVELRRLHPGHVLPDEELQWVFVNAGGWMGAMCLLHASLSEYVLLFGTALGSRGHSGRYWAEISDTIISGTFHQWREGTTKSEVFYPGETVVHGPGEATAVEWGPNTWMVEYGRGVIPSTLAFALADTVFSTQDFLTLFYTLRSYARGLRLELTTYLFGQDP

**Q.** Which Ki [1] does the source give for `Nc1nc(CCN2CCC3(CC2)CN(Cc2ccc(C(F)(F)F)cn2)C(=O)CO3)cs1` [Example 304, 9-(2-(2-aminothiazol-4-yl)ethyl)-4-((5-(trifluoromethyl)pyridin-2-yl)methyl)-1-oxa-4,9-diazaspiro[5.5]undecan-3-one] here?
**A.** < 500 nM

**Q.** With `CC1OC2(CCN(CCn3nccc3N)CC2)CN(c2ccccc2)C1=O` (centres unmarked) [Example 305, 9-(2-(5-amino-1H-pyrazol-1-yl)ethyl)-2-methyl-4-phenyl-1-oxa-4,9-diazaspiro[5.5]undecan-3-one hydrochloride] as the compound, how does the Ki [1] read?
**A.** > 500 nM

**Q.** With `CC(C)C1OC2(CCN(CCc3csc(N)n3)CC2)CN(c2ccccc2F)C1=O` (centres unmarked) [Example 306, 9-(2-(2-aminothiazol-4-yl)ethyl)-4-(2-fluorophenyl)-2-isopropyl-1-oxa-4,9-diazaspiro[5.5]undecan-3-one dihydrochloride] as the compound, how does the “μ and σ1 dual binding” value read?
**A.** ++

**Q.** How did the Ki turn out when `Nc1nc(CCN2CCC3(CC2)CN(c2ccccc2)C(=O)C2(CC2)O3)cs1` [Example 307, 8-[2-(2-aminothiazol-4-yl)ethyl]-12-phenyl-4-oxa-8,12-diazadispiro[2.1.5.3]tridecan-13-one dihydrochloride] was run?
**A.** < 500 nM

**Q.** With `Nc1nc(CCN2CCC3(CC2)CN(Cc2ccc(C(F)(F)F)cn2)C(=O)C2(CC2)O3)cs1` [Example 308, 8-[2-(2-aminothiazol-4-yl)ethyl]-12-{[5-(trifluoromethyl)pyridin-2-yl]methyl}-4-oxa-8,12-diazadispiro[2.1.5.3]tridecan-13-one trihydrochloride] as the compound, how does the “μ and σ1 dual binding” value read?
**A.** ++

**Q.** `CC1OC2(CCN(CCc3csc(N)n3)CC2)CN(c2cnccc2C(F)(F)F)C1=O` (centres unmarked) [Example 309, 9-(2-(2-aminothiazol-4-yl)ethyl)-2-methyl-4-(4-(trifluoromethyl)pyridin-3-yl)-1-oxa-4,9-diazaspiro[5.5]undecan-3-one] was tested. Which Ki [1] did it give?
**A.** > 500 nM

**Q.** For `O=C1N(CCO)CC2(CCN(CCc3ccccc3)CC2)OC12CC2` [Example 310, 12-(2-hydroxyethyl)-8-phenethyl-4-oxa-8,12-diazadispiro[2.1.5.3]tridecan-13-one hydrochloride], which Ki [1] is on record?
**A.** > 500 nM

**Q.** With `O=C1C(CC2CCOCC2)OC2(CCN(CCc3ccccc3)CC2)CN1c1ccccc1F` (centres unmarked) [Example 311, 4-(2-fluorophenyl)-9-phenethyl-2-((tetrahydro-2H-pyran-4-yl)methyl)-1-oxa-4,9-diazaspiro[5.5]undecan-3-one hydrochloride] as the compound, how does the Ki read?
**A.** < 500 nM

**Q.** With `CC(C)C1OC2(CCN(CCc3ccccc3)CC2)CN(c2ccccc2F)C1=O` (centres unmarked) [Example 312, 4-(2-fluorophenyl)-2-isopropyl-9-phenethyl-1-oxa-4,9-diazaspiro[5.5]undecan-3-one hydrochloride] as the compound, how does the Ki read?
**A.** < 100 nM

**Q.** Which Ki does the source give for `CC(C)C1OC2(CCN(CCc3ccccn3)CC2)CN(c2ccccc2F)C1=O` (centres unmarked) [Example 313, 4-(2-fluorophenyl)-2-isopropyl-9-(2-(pyridin-2-yl)ethyl)-1-oxa-4,9-diazaspiro[5.5]undecan-3-one hydrochloride] here?
**A.** < 500 nM

**Q.** `COCCCC1OC2(CCN(CCc3ccccc3)CC2)CN(c2ccccc2F)C1=O` (centres unmarked) [Example 314, 4-(2-fluorophenyl)-2-(3-methoxypropyl)-9-phenethyl-1-oxa-4,9-diazaspiro[5.5]undecan-3-one hydrochloride] was tested. Which Ki did it give?
**A.** < 500 nM

**Q.** With `CC1OC2(CCN(CC(=O)N(C)c3ccccc3)CC2)CN(c2ccccc2)C1=O` (centres unmarked) [Example 315, N-methyl-2-(2-methyl-3-oxo-4-phenyl-1-oxa-4,9-diazaspiro[5.5]undecan-9-yl)-N-phenylacetamide hydrochloride] as the compound, how does the Ki [1] read?
**A.** > 500 nM

**Q.** Which Ki [1] does the source give for `Oc1cccc(N2CCOC3(CCN(CCc4ccccc4)CC3)C2)c1` [Example 316, 3-(9-phenethyl-1-oxa-4,9-diazaspiro[5.5]undecan-4-yl)phenol] here?
**A.** < 500 nM

**Q.** `c1ccc(CCN2CCC3(CC2)CN(c2ccccc2)CCO3)cc1` [Example 317, 9-phenethyl-4-phenyl-1-oxa-4,9-diazaspiro[5.5]undecane] was tested. Which Ki [1] did it give?
**A.** < 500 nM

**Q.** Which Ki [1] does the source give for `Oc1cccc(N2CCOC3(CCN(Cc4ccccc4)CC3)C2)c1` [Example 318, 3-(9-benzyl-1-oxa-4,9-diazaspiro[5.5]undecan-4-yl)phenol] here?
**A.** < 500 nM

**Q.** For `COCC1CN(c2ccccc2)CC2(CCN(CCc3ccccc3)CC2)O1` (centres unmarked) [Example 319, 2-(methoxymethyl)-9-phenethyl-4-phenyl-1-oxa-4,9-diazaspiro[5.5]undecane hydrochloride], which Ki is on record?
**A.** < 500 nM

**Q.** For `COc1cccc(CCN2CCC3(CC2)CN(c2ccccc2)CCO3)c1.Cl` [Example 320, 9-(3-methoxyphenethyl)-4-phenyl-1-oxa-4,9-diazaspiro[5.5]undecane hydrochloride], which “μ and σ1 dual binding” value is on record?
**A.** ++

**Q.** How did the “μ and σ1 dual binding” value [2] turn out when `Oc1ccccc1CCN1CCC2(CC1)CN(c1ccccc1)CCO2` [Example 321, 2-(2-(4-phenyl-1-oxa-4,9-diazaspiro[5.5]undecan-9-yl)ethyl)phenol] was run?
**A.** ++

**Q.** For `Oc1cccc(CCN2CCC3(CC2)CN(c2ccccc2)CCO3)c1` [Example 322, 3-(2-(4-phenyl-1-oxa-4,9-diazaspiro[5.5]undecan-9-yl)ethyl)phenol], which Ki [1] is on record?
**A.** < 500 nM

**Q.** With `OCCC1CN(c2ccccc2)CC2(CCN(CCc3ccccc3)CC2)O1` (centres unmarked) [Example 323, 2-(9-phenethyl-4-phenyl-1-oxa-4,9-diazaspiro[5.5]undecan-2-yl)ethanol hydrochloride] as the compound, how does the Ki read?
**A.** < 500 nM

**Q.** Which Ki [1] does the source give for `c1ccc(CCN2CCC3(CC2)CN(Cc2ccccc2)CCO3)cc1` [Example 324, 4-benzyl-9-phenethyl-1-oxa-4,9-diazaspiro[5.5]undecane dihydrochloride] here?
**A.** < 100 nM

**Q.** `c1ccc(CCN2CCC3(CC2)CN(Cc2cscn2)CCO3)cc1` [Example 325, 9-phenethyl-4-(thiazol-4-ylmethyl)-1-oxa-4,9-diazaspiro[5.5]undecane dihydrochloride] was tested. Which Ki [1] did it give?
**A.** < 500 nM

**Q.** With `COc1ccccc1CCN1CCC2(CC1)CN(Cc1ccccn1)CCO2` [Example 326, 9-(2-methoxyphenethyl)-4-(pyridin-2-ylmethyl)-1-oxa-4,9-diazaspiro[5.5]undecane] as the compound, how does the Ki [1] read?
**A.** < 500 nM

**Q.** How did the Ki [1] turn out when `CC1CN(Cc2nccn2C)CC2(CCN(CCc3ccccc3)CC2)O1` (centres unmarked) [Example 327, 2-methyl-4-((1-methyl-1H-imidazol-2-yl)methyl)-9-phenethyl-1-oxa-4,9-diazaspiro[5.5]undecane dihydrochloride] was run?
**A.** < 500 nM

**Q.** Which “μ and σ1 dual binding” value does the source give for `CC1CN(Cc2ccn(C)n2)CC2(CCN(CCc3ccccc3)CC2)O1` (centres unmarked) [Example 328, 2-methyl-4-((1-methyl-1H-pyrazol-3-yl)methyl)-9-phenethyl-1-oxa-4,9-diazaspiro[5.5]undecane dihydrochloride] here?
**A.** ++

**Q.** For `Oc1ccccc1CCN1CCC2(CC1)CN(Cc1ccccn1)CCO2` [Example 329, 2-(2-(4-(pyridin-2-ylmethyl)-1-oxa-4,9-diazaspiro[5.5]undecan-9-yl)ethyl)phenol hydrochloride], which Ki [1] is on record?
**A.** < 100 nM

**Q.** How did the Ki [1] turn out when `CC1CN(Cc2ccccn2)CC2(CCN(CCc3ccccc3)CC2)O1` (centres unmarked) [Example 330, 2-methyl-9-phenethyl-4-(pyridin-2-ylmethyl)-1-oxa-4,9-diazaspiro[5.5]undecane hydrochloride] was run?
**A.** < 100 nM

**Q.** Which “μ and σ1 dual binding” value does the source give for `CC1CN(CCc2cccnc2)CC2(CCN(CCc3ccccc3)CC2)O1` (centres unmarked) [Example 331, 2-methyl-9-phenethyl-4-(2-(pyridin-3-yl)ethyl)-1-oxa-4,9-diazaspiro[5.5]undecane hydrochloride] here?
**A.** ++

**Q.** Which “μ and σ1 dual binding” value [2] does the source give for `COc1ccc(CCN2CCC3(CC2)CN(c2ccccc2)CCO3)cc1` [Example 332, 9-(4-methoxyphenethyl)-4-phenyl-1-oxa-4,9-diazaspiro[5.5]undecane] here?
**A.** ++
